Assay results from US9408853B2, “Iridium/rhodium anti-cancer compounds” (University of Warwick, priority 2010, dated 2016).

Assays:
[1] = test system: A2780 human ovarian cancer cells; assay: Cytotoxicity testing of rhodium complexes; type: cell-based
Description: Cytotoxicity testing in A2780 human ovarian cancer cells was performed by Dr Ana Maria Pizarro Arranz at the University of Warwick.

[2] = Hydrolysis studies of C,N-chelated complexes and anation by NaCl (1H NMR); type: physicochemical; conditions: 20% MeOD-d4/80% D2O; equilibrium reached within ~5 min even at 278 K
Excerpt: Hydrolysis Studies. The hydrolysis of complexes [(η^5-C5Me5)Ir(2-phpy)Cl] (ZL47), [(η^5-C5Me4C6H4C6H5)Ir(2-phpy)Cl] (ZL49), [(η^5-C5Me5) Ir(2-phq)Cl] (ZL68), [(η^5-C5Me5) Ir(tpy)Cl] (ZL69), [(η^5-C5Me5)Ir(2-dfphpy)Cl] (ZL74) and [(η^5-C5Me4C6H5)Ir(2-phpy) Cl] (ZL107) in 20% MeOD-d4/80% D2O (v/v) was monitored by ^1H NMR at different temperatures. The presence of methanol ensured the solubility of the complexes.

[3] = test system: human ovarian A2780 cancer cells; assay: Cancer cell cytotoxicity, SRB assay; type: cell-based; conditions: 24 h exposure, 72 h recovery, SRB; read-out: A2780 IC50
Description: Cancer Cell Cytotoxicity. After plating, human ovarian A2780 cancer cells were treated with Ir^III complexes on day 3 at concentrations ranging from 0.5 μM to 100 μM. Solutions of the Ir^III complexes were made up in 0.125% DMSO to assist dissolution. Stock solutions of the IrIII complexes were firstly prepared in DMSO to assist dissolution, and then diluted into 0.9% saline and medium. After plating 5000 A2780 cells per well on day 1, IrIII complexes were added to the cancer cells on day 3 at concentrations ranging from 0.05 μM to 100 μM. Cells were exposed to the complexes for 24 h, washed, supplied with fresh medium, allowed to grow for three doubling times (72 h), and then the protein content measured (proportional to cell survival) using the sulforhodamine B (SRB) assay.^15 […]. The standard errors are based on two independent experiments of three replicates each.

[4] = test system: 9-ethylguanine (9-EtG); assay: Interactions with nucleobases: 9-EtG adduct formation (1H NMR); type: binding; conditions: 24 h; ca. 1.0 mM, 1 mol equiv 9-EtG, 20% MeOD-d4/80% D2O, 310 K
Description: Interactions with Nucleobases. The reaction of ZL01, ZL03, ZL04, ZL07, ZL25, ZL33, ZL37, ZL38, ZL43 and ZL54 and ZL33A with nucleobases typically involved addition of a solution containing 1-2 mol equiv of nucleobase in D2O, to an equilibrium solution of ZL01, ZL03, ZL04, ZL07, ZL25, ZL33, ZL37, ZL38, ZL43, ZL54 and ZL33A in a solution of 5% MeOD-d4/95% D2O (v/v). ^1H NMR spectra of these solutions were recorded at 310 K after various time intervals.
Since DNA is a potential target site for transition metal anticancer complexes,^18 nucleobase binding reactions of compounds ZL01, ZL03, ZL04, ZL07, ZL25, ZL33, ZL33A, ZL37, ZL38, ZL43 and ZL54 with nucleobase models 9-ethylguanine (9-EtG) and 9-ethyladenine (9-EtA), were investigated. Solutions of ZL01, ZL03, ZL04, ZL07, ZL25, ZL33, ZL37, ZL38, ZL43 and ZL54 (1 mM) (containing an equilibrium mixture of these complexes and their respective aqua adducts) with 1 mol equivalent of 9-EtG or 9-EtA in D2O were prepared, and ^1H NMR spectra were recorded at different time intervals.
Interactions with Nucleobases. Since DNA is a potential target site for transition metal anticancer complexes,^23 the binding of 9-ethylguanine (9-EtG) to complexes ZL47, ZL49, ZL69, ZL74 and ZL107 was studied.

[5] = test system: HT-29 cancer cell line; conditions: cited from earlier work
[6] = test system: MCF-7 cancer cell line; conditions: cited from earlier work
[7] = test system: human ovarian cancer cell line A2780cisR (cisplatin-resistant); conditions: cited from earlier work
[8] = test system: human ovarian cancer cell line A2780; conditions: cited from earlier work
[9] = test system: melanoma SK-MEL-5; assay: NCI screen, single cell line; type: cell-based
Excerpt: (§1) Six complexes, [(η^5-C5Me4C6H4C6H5)Ir(bpy)Cl]PF6 (ZL25, bpy=2,2′-bipyridine), [(η^5-C5Me4C6H5)Ir(phen)Cl]PF6 (ZL33, phen=1,10-phenanthroline), [(η^5-C5Me4C6H4C6H5) Ir(pico)Cl] (ZL43, pico=picolinate), [(η^5-C5Me5)Ir(2-phpy)Cl] (ZL47), [(η^5-C5Me4C6H4C6H5)Ir(2-phPY)(D2O)Cl] (ZL49) and [(η^5-C5Me4C6H4C6H5) Ir(phen)Cl]PF6 (ZL54), were selected by Developmental Therapeutics Program of National Cancer Institute (NCI, U.S.A.) for in vitro screening test, in which 5 complexes except ZL43 are selected for further testing. The five complexes were tested on ca. 60 cell lines within nine tumour type subpanels at five concentrations ranging from 0.01 to 100 μM.

[10] = test system: breast MDA-MB-468; assay: NCI screen, single cell line; type: cell-based
Excerpt: as §1

[11] = test system: colon COLO 205; assay: NCI screen, single cell line; type: cell-based
Excerpt: as §1

[12] = test system: ca. 60 cell lines within nine tumour type subpanels; type: cell-based
Excerpt: as §1

Molecule	hydrolysis (in words) [2]	IC50 [3]	guanine adducts formed [4]	in vitro cytotoxic activity towards MCF-7 (in words) [6]	other results
[(Cp^xdiPh)Rh(2-phenylbipyridyl)Cl]Cl [JS39]					relative activity against A2780 (in words) [1]: most active
Cc1c(C)c(C)[c-](C)c1C.[Cl-].[Ir+3].[c-]1ccccc1-c1ccc2ccccc2n1 [ZL68, [(η^5-C5Me5)Ir(2-phq)Cl]]	rapid hydrolysis	2550 ± 30 nM			
[(Cp*)Rh(2-phenylbipyridyl)Cl]Cl [JS36]					relative activity against A2780 (in words) [1]: most active
Cc1c(C)c(C)[c-](C)c1C.Cc1c[c-]c(-c2ccccn2)cc1.[Cl-].[Ir+3] [ZL69, [(η^5-C5Me5)Ir(tpy)Cl]]	rapid hydrolysis	3280 ± 140 nM	100%		
CN(C)C(=S)N(C)C.Cc1c(C)c(C)[c-](C)c1C.O=S(=O)([O-])C(F)(F)F.O=S(=O)([O-])C(F)(F)F.[Ir+3].c1ccc2cc3nc4c5cccnc5c5ncccc5c4nc3cc2c1 [[(η^5-C5Me5)Ir((NMe2)2CS)(dppn)](CF3SO3)2]				possess in vitro cytotoxic activity	in vitro cytotoxic activity towards HT-29 (in words) [5]: possess in vitro cytotoxic activity
Cc1c(C)c(-c2ccccc2)[c-](C)c1C.[Cl-].[Ir+3].[c-]1ccccc1-c1ccccn1 (centres unmarked) [ZL107, [(η^5-C5Me4C6H5)(2-phpy)Cl]]	rapid hydrolysis	2140 ± 500 nM	100%		
Cc1c(C)c(C)[c-](C)c1C.O=S(=O)([O-])C(F)(F)F.[Cl-].[Ir+3].c1ccc2nc3c4cccnc4c4ncccc4c3nc2c1 [[(η^5-C5Me5)IrCl(dppz)](CF3SO3)]				possess in vitro cytotoxic activity	in vitro cytotoxic activity towards HT-29 (in words) [5]: possess in vitro cytotoxic activity
Cc1c(C)c(C)[c-](C)c1C.[Cl-].[Ir+3].c1ccc(-c2nccs2)nc1 [[(η^5-C5Me5)Ir (pyTz)Cl]^+]					activity towards A2780cisR (in words) [7]: inactive; activity towards A2780 (in words) [8]: inactive
Cc1c(C)c(C)[c-](C)c1C.NCCN.O=S(=O)([O-])C(F)(F)F.[Cl-].[Ir+3] [[(η^5-C5Me5) Ir(en)Cl](CF3SO3)]				inactive	
Cc1c(C)c(C)[c-](C)c1C.O=S(=O)([O-])C(F)(F)F.[Cl-].[Ir+3].c1cnc2c(c1)ccc1cccnc12 [[(η^5-C5Me5)Ir(phen)Cl](CF3SO3)]				inactive	
Cc1c(C)c(C)[c-](C)c1C.Fc1c[c-]c(-c2ccccn2)c(F)c1.[Cl-].[Ir+3] [ZL74, [(η^5-C5Me5)Ir(2-dfphpy)Cl]]	rapid hydrolysis	6530 ± 500 nM	100%		
Cc1c(C)c(C)[c-](-c2ccc(-c3ccccc3)cc2)c1C.[Cl-].[Ir+3].[c-]1ccccc1-c1ccccn1 [ZL49, [(η^5-C5Me4C6H4C6H5)Ir(2-phpy)Cl]]	rapid hydrolysis	700 nM	100%		GI50 [9]: < 200 nM; GI50 [10]: < 200 nM; GI50 [11]: < 200 nM; CC50 [12]: 7080 ± 1050 nM; Mean graph midpoint (MID) TGI ([12]; ca. 60 cell lines, 0.01 to 100 μM): 2190 ± 150 nM; GI50 ([12]; ca. 60 cell lines, 0.01 to 100 μM, read-out: Mean graph midpoint (MID) GI50): 710 ± 10 nM; selectivity among tumour type subpanels (in words) ([12]; mean graphs): selective for leukemia, colon cancer, and melanoma
[(Cp^xPh)Rh(2-Phenylbipyridyl)Cl]Cl [JS29]					relative activity against A2780 (in words) [1]: most active
